Source: patent US11634412B2, “3-phosphoglycerate dehydrogenase inhibitors and uses thereof” (Raze Therapeutics, Inc., priority 2016, dated 2023)

What follows are compounds tested against T1, Full length (FL) 3-Phosphoglycerate Dehydrogenase (PHGDH) (Homo sapiens, UniProt O43175) (assay: Full length (FL) PHGDH Diaphorase coupled assay (500 uM NAD)). Details: full-length PHGDH 5 nM, 30° C. 60 minutes, resorufin fluorescence.
T1 construct: Full length (FL) 3-Phosphoglycerate Dehydrogenase (PHGDH) Diaphorase coupled assay (500 uM NAD)
T1 sequence (O43175 1-533): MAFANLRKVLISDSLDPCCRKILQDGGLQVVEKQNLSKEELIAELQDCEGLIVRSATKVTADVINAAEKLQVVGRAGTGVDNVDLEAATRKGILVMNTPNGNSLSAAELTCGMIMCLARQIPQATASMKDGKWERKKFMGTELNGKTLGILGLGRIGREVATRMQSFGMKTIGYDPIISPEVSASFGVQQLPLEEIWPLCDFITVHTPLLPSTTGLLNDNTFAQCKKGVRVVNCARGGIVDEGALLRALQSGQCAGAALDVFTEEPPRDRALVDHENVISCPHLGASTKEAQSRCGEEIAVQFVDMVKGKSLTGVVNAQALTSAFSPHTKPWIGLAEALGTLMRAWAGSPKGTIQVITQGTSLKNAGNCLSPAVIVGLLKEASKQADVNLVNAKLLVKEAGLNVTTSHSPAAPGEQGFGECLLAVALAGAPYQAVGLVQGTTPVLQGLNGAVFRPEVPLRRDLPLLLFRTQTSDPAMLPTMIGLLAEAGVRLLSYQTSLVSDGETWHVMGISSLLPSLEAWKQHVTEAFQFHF
Format: biochemical
Method: Full length (FL) 3-Phosphoglycerate Dehydrogenase (PHGDH) Diaphorase coupled assay (500 uM NAD)
PHGDH activity was determined by detecting the NADH produced during the reaction. Diaphorase was used to catalyze the oxidation of NADH with the concomitant reduction of resazurin to the fluorescent product resorufin. Resorufin fluorescence quantitatively reflected the production of NADH by the PHGDH reaction. To drive the forward reaction, two enzymes in the serine synthesis pathway subsequent to PHGDH, Phosphoserine aminotransferase (PSAT1) and phosphoserine phosphatase (PSPH) were also added to the reaction.
Briefly, serial dilution of compounds were incubated in a volume of 20 μL in 384 well plates with the assay mixture containing 5 nM PHGDH, 500 nM PSAT1, 500 nM PSPH, 500 μM NAD^+, 80 uM 3-phosphoglycerate, 1 mM glutamate, 57 uM Resazurin and 0.2 mg/ml Diaphorase in assay buffer containing 50 mM Trisethanoloamine (TEA) pH8.0, 10 mM MgCl2, 0.01% Tween-20 and 0.05% Bovine Serum Albumin (BSA). The plate was then incubated at 30° C. for 60 minutes and resorufin fluorescence was measured at emission wavelength 598 nm following excitation at 525 nm. The positive control consisted of the complete reaction mixture with 4% DMSO and was set to 0% inhibition.

IC50 [nM] | Structure (SMILES)
1 to 1000 | Cc1cc(C(=O)O)ccc1C1(NC(=O)c2cc3c(Cl)c(Cl)ccc3n2C)CCOC1 (racemic) [I-99 e89]
5000 to 10000 | CCN1CCC(NC(=O)c2cc3c(Cl)c(Cl)ccc3n2C)(c2ccc(C(=O)O)cc2)C1 (racemic) [I-126 e18]
1 to 1000 | CC(C(=O)O)c1ccc(C2(NC(=O)c3cc4c(Cl)c(Cl)ccc4n3C)CCOC2)cc1 (racemic) [I-105 e152, (±)-2-[4-[3-[(4,5-dichloro-1-methyl-indole-2-carbonyl)amino]tetrahydrofuran-3-yl]phenyl]propanoic acid]
1 to 1000 | Cn1c(C(=O)NC2(c3ccc(C(=O)O)cc3F)CCOC2)cc2c(Cl)c(Cl)ccc21 (racemic) [I-118 e29]
1000 to 5000 | Cn1c(C(=O)NC2(c3ccc(C(=O)O)cc3)CCOC2)cc2c(Cl)c(F)ccc21 (racemic) [I-106 e31]
1000 to 5000 | Cn1c(C(=O)NC2(c3ccc(C(=O)O)cc3)CCOC2)cc2c(Cl)cc(OCC3CNC(=O)O3)cc21 (racemic) [I-95 e96]
1 to 1000 | Cc1ccc2c(cc(C(=O)NC3(c4ccc(C(=O)O)cc4)CCOC3)n2C)c1Cl (racemic) [I-116 e32]
1 to 1000 | Cc1cc(CC(=O)O)ccc1C1(NC(=O)c2cc3c(Cl)c(Cl)ccc3n2C)COC1 [I-82 e51]
1 to 1000 | Cn1c(C(=O)N[C@]2(c3ccc(CC(=O)O)cc3)CCOC2)cc2c(Cl)c(Cl)ccc21 (single isomer, unassigned) [I-109 or I-108 e150 peak 1]
1 to 1000 | Cn1c(C(=O)NC2(c3ccc(C(=O)O)cc3)CCOC2)cc2c(Cl)c(Cl)c(OCc3ncc[nH]3)cc21 (racemic) [I-81 e105]
1 to 1000 | Cn1c(C(=O)NC2(c3ccc(C(=O)O)cc3)CCCOC2)cc2c(Cl)c(Cl)ccc21 (racemic) [I-123 e23]
1 to 1000 | Cn1c(C(=O)NC2(c3ccc(C(=O)O)cc3)CCOC2)cc2c(Cl)c(Cl)c(OCC3CCOC3)cc21 (racemic) [I-92 e101]
1 to 1000 | Cn1c(C(=O)N[C@@]2(c3ccc(CC(=O)O)cc3)CCOC2)cc2c(Cl)c(Cl)ccc21 (single isomer, unassigned) [I-108 or I-109 e151 peak 2]
1 to 1000 | Cn1c(C(=O)NC2(c3ccc(CC(=O)O)cc3Cl)COC2)cc2c(Cl)c(Cl)ccc21 [I-84 e49]
1 to 1000 | Cn1c(C(=O)NC2(c3ccc(C(=O)O)cc3Cl)COC2)cc2c(Cl)c(Cl)ccc21 [I-85 e48]
1 to 1000 | Cc1cc(C(=O)O)ccc1C1(NC(=O)c2cc3c(Cl)c(Cl)ccc3n2C)COC1 [I-83 e50]
1 to 1000 | CN1CC(COc2cc3c(cc(C(=O)NC4(c5ccc(C(=O)O)cc5)CCOC4)n3C)c(Cl)c2Cl)OC1=O (racemic) [I-93 e106]
1 to 1000 | CCOc1cc2c(cc(C(=O)NC3(c4ccc(C(=O)O)cc4)CCOC3)n2C)c(Cl)c1Cl (racemic) [I-104 e97]

Further lines, the compound ahead of its results:

Structure (SMILES) | IC50 [nM]
CC(C)CC(C(=O)O)c1ccc(C2(NC(=O)c3cc4c(Cl)c(Cl)ccc4n3C)COC2)cc1 (racemic) [I-9 e137, (±)-2-(4-(3-(4,5-Dichloro-1-methyl-1H-indole-2-carboxamido)oxetan-3-yl)phenyl)-4-methylpentanoic acid] | 1 to 1000
COc1cc2c(cc(C(=O)NC3(c4ccc(C(C(=O)O)C(C)C)cc4)CCOC3)n2C)c(Cl)c1Cl (racemic) [I-20 e83] | 1 to 1000
COc1ccc2c(cc(C(=O)NC3(c4ccc(C5(C(=O)O)CC5)cc4)CCOC3)n2C)c1Cl (racemic) [I-58 e70] | 1 to 1000
CC(C(=O)O)c1ccc(C2(NC(=O)c3cc4c(Cl)c(Cl)ccc4n3C)COC2)c(Cl)c1 (stereo not shown) [I-33 e62] | 1 to 1000
COc1cc2c(cc(C(=O)NC3(c4ccc(CC(=O)O)cc4F)COC3)n2C)c(Cl)c1F [I-61 e47] | 1 to 1000
CC(C)C(C(=O)O)c1ccc(C2(NC(=O)c3cc4c(Cl)c(Cl)ccc4n3C)CCOC2)cc1 (racemic) [I-19 e94] | 1 to 1000
COc1ccc2c(cc(C(=O)NC3(c4ccc(CC(=O)O)cc4Cl)COC3)n2C)c1Cl [I-32 e64] | 1 to 1000
COc1cc2c(cc(C(=O)NC3(c4ccc(C(=O)O)cc4C)COC3)n2C)c(Cl)c1Cl [I-51 e68] | 1 to 1000
COc1cc2c(cc(C(=O)NC3(c4ccc(C(C(=O)O)C(C)C)cc4)COC3)n2C)c(Cl)c1Cl (racemic) [I-29 e135, (±)-2-[4-[3-[(4,5-Dichloro-6-methoxy-1-methyl-indole-2-carbonyl)amino]oxetan-3-yl]phenyl]-3-methyl-butanoic acid] | 1 to 1000
C[C@H](C(=O)O)c1ccc(C2(NC(=O)c3cc4c(Cl)c(Cl)ccc4n3C)COC2)cc1 (single isomer, unassigned) [I-35 or I-34 e160 peak 1] | 1 to 1000
COc1ccc2c(cc(C(=O)NC3(c4ccc(C(C)(C)C(=O)O)cc4)CCOC3)n2C)c1Cl (racemic) [I-77 e63] | 1 to 1000
COc1cc(CC(=O)O)ccc1C1(NC(=O)c2cc3c(Cl)c(Cl)ccc3n2C)COC1 [I-69 e52] | 5000 to 10000
COc1cc2c(cc(C(=O)NC3(c4ccc(C(C(=O)O)C5CCCC5)cc4)COC3)n2C)c(Cl)c1Cl (racemic) [I-22 e118] | 1 to 1000
CCCC(C(=O)O)c1ccc(C2(NC(=O)c3cc4c(Cl)c(Cl)ccc4n3C)CCOC2)cc1 (racemic) [I-18 e84] | 1 to 1000
CCC(C(=O)O)c1ccc(C2(NC(=O)c3cc4c(Cl)c(Cl)c(OC)cc4n3C)CCOC2)cc1 (racemic) [I-23 e82] | 1 to 1000
COc1ccc2c(cc(C(=O)NC3(c4ccc(C(C)C(=O)O)cc4F)COC3)n2C)c1Cl (racemic) [I-49 e60] | 1 to 1000
Cn1c(C(=O)NC2(c3ccc(C(C(=O)O)C4CCC4)cc3)CCOC2)cc2c(Cl)c(Cl)ccc21 (racemic) [I-12 e86] | 1 to 1000
COc1ccc2c(cc(C(=O)NC3(c4ccc(C(C)(C)C(=O)O)cc4F)CCOC3)n2C)c1Cl (racemic) [I-39 e81] | 1 to 1000
CCCC(C(=O)O)c1ccc(C2(NC(=O)c3cc4c(Cl)c(OC)ccc4n3C)COC2)cc1 (racemic) [I-31 e112] | 1 to 1000
COc1ccc2c(cc(C(=O)NC3(c4ccc(C(=O)O)cc4F)COC3)n2C)c1Cl [I-75 e66] | 1 to 1000
COc1cc2c(cc(C(=O)NC3(c4ccc(C(C)(C)C(=O)O)cc4F)CCOC3)n2C)c(Cl)c1Cl (racemic) [I-53 e80] | 1 to 1000
Cn1c(C(=O)NC2(c3ccc(C4(C(=O)O)CC4)cc3)CCOC2)cc2c(Cl)c(Cl)ccc21 (racemic) [I-59 e38] | 1 to 1000
COc1ccc2c(cc(C(=O)NC3(c4ccc(C(C(=O)O)C(C)C)cc4)COC3)n2C)c1Cl (racemic) [I-21 e127] | 1 to 1000
Cn1c(C(=O)NC2(c3ccc(C(C(=O)O)C4CCCC4)cc3)COC2)cc2c(Cl)c(Cl)ccc21 (racemic) [I-25 e136, (±)-2-Cyclopentyl-2-[4-[3-[(4,5-dichloro-1-methyl-indole-2-carbonyl)amino]oxetan-3-yl]phenyl]acetic acid] | 1 to 1000
CCC(C(=O)O)c1ccc(C2(NC(=O)c3cc4c(Cl)c(OC)ccc4n3C)COC2)cc1 (racemic) [I-43 e126] | 1 to 1000
COc1cc2c(cc(C(=O)NC3(c4ccc(C(C)C(=O)O)cc4)COC3)n2C)c(Cl)c1Cl (stereo not shown) [I-48 e71] | 1 to 1000
COc1ccc2c(cc(C(=O)NC3(c4ccc(C(C(=O)O)C5CCCC5)cc4)COC3)n2C)c1Cl (racemic) [I-26 e130] | 1 to 1000
COc1cc2c(cc(C(=O)NC3(c4ccc(C(=O)O)cc4Cl)COC3)n2C)c(Cl)c1C [I-46 e73] | 1 to 1000
